Test results: patent US20260354378A1, “OIL-IN-WATER EMULSION FORMULATION, A PROCESS FOR ITS PREPARATION AND ITS USE AS HERBICIDE” (priority 2022, published 2026)
Where a name gives a salt, the structure may show the parent alone.

Tests used:
[1] = Solubility in the organic solvent Solvesso 200ND; format: physicochemical; conditions: room temperature
Description: (§1) As a preliminary step, solubility tests were performed to determine the ability of Aminopyralid potassium salt used as herbicide B to dissolve in the organic solvent Solvesso 200ND and the oil phase of the emulsion disclosed in US 2011/0092367 A1, page 11, paragraphs [0141] and [0142].
The solubility was measured in a test tube at room temperature. 0.10 g of Aminopyralid potassium salt was placed in the test tube. First, 1 g of the organic solvent (Solvesso 200 ND) was added. The amount of the organic solvent (Solvesso 200 ND) was then increased in several steps to 10 g. […] The solubility of Aminopyralid Potassium salt in Solvesso 200ND was visually determined to be less than 1%.

[2] = Solubility in the oil phase of the emulsion of US 2011/0092367 A1; format: physicochemical; conditions: Solvesso 200 ND, Wettol EM 1, Wettol EM 31 per Table 9
Description: as §1
The organic solvent (Solvesso 200 ND), calcium dodecylbenzene sulfonate (Wettol EM 1) and castor oil ethoxylate (Wettol EM 31) were mixed in the amounts given in Table 9. After mixing, it was not soluble in said mixture. After further adding dimethenamid-P in the amount given in Table 9, solubility of the Aminopyralid potassium salt could not be increased. In summary, Aminopyralid potassium salt (herbicide B) was not soluble in the oil phase of the emulsion as disclosed in US 2011/0092367 A1 (see page 11, paragraphs [0141] and [0142]).

## Nc1cc(Cl)nc(C(=O)O)c1Cl [Aminopyralid potassium salt, 4-amino-3,6-dichloro-2-pyridinecarboxylic acid]
[1]; 0.10 g in 1 g to 10 g solvent, magnetic stirrer
  Solubility in Solvesso 200 ND (visual observation): poor solubility
[1]; visually determined
  Solubility in Solvesso 200ND: less than 1%
[2]
  Solubility in the oil phase of the emulsion of US 2011/0092367 A1: not soluble
